Laboratory results from patent publication US9090610B2, “Fluoroalkyl-substituted pyrazolopyridines and use thereof” (BAYER INTELLECTUAL PROPERTY GMBH, priority 2011, dated 2015).

Legend:
[1] = system: recombinant guanylate cyclase reporter cell line; assay: Effect on a recombinant guanylate cyclase reporter cell line; assay type: cell-based; details: recombinant guanylate cyclase reporter cell line (Wunder et al. 2005); read-out: MEC (minimum effective concentration)
Procedure: B-2. Effect on a Recombinant Guanylate Cyclase Reporter Cell Line
The cellular activity of the compounds according to the invention is determined using a recombinant guanylate cyclase reporter cell line, as described in F. Wunder et al., Anal. Biochem. 339, 104-112 (2005).

rabbit aorta rings = assay: Vasorelaxant action in vitro (phenylephrine-contracted rabbit aortic rings); details: Oryctolagus cuniculus, phenylephrine-induced contraction, organ bath 37° C., 0.1% DMSO, read-out: IC50 (concentration needed to reduce the magnitude of the control contraction by 50%)
Procedure: B-1. Vasorelaxant Action In Vitro
Rabbits are stunned by a blow to the neck and exsanguinated. The aorta is removed, freed from adhering tissue and divided into rings of a width of 1.5 mm. The rings are placed individually under an initial tension in 5 ml organ baths with Krebs-Henseleit solution which is at 37° C., is gassed with carbogen and has the following composition (in each case mM): sodium chloride: 119; potassium chloride: 4.8; calcium chloride dihydrate: 1; magnesium sulfate heptahydrate: 1.4; potassium dihydrogenphosphate: 1.2; sodium bicarbonate: 25; glucose: 10. The contractile force is determined with Statham UC2 cells, amplified and digitalized using A/D transducers (DAS-1802 HC, Keithley Instruments Munich), and recorded in parallel on linear recorders. To obtain a contraction, phenylephrine is added to the bath cumulatively in increasing concentration. After several control cycles, the substance to be investigated is added in each further run in increasing dosage in each case, and the height of the contraction achieved is compared with the height of the contraction reached in the last preceding run. This is used to calculate the concentration needed to reduce the magnitude of the control value by 50% ([…]). The standard administration volume is 5 μl; the DMSO content in the bath solution corresponds to 0.1%.

| IC50 (rabbit aorta rings) [nM] | SMILES | minimal effective concentration [1] [µM] |
| --- | --- | --- |
| 263 | CC1(C)C(=O)Nc2nc(-c3nn(CCC(F)(F)C(F)(F)F)c4ncccc34)nnc21 [Example 1, 7,7-Dimethyl-3-[1-(3,3,4,4,4-pentafluorobutyl)-1H-pyrazolo[3,4-b]pyridin-3-yl]-5,7-dihydro-6H-pyrrolo[2,3-e][1,2,4]triazin-6-one] | 0.3 |
| 129 | CC1(C)C(=O)Nc2nc(-c3nn(CCC(F)(F)C(F)(F)F)c4ncc(F)cc34)nnc21 [Example 2, 3-[5-Fluoro-1-(3,3,4,4,4-pentafluorobutyl)-1H-pyrazolo[3,4-b]pyridin-3-yl]-7,7-dimethyl-5,7-dihydro-6H-pyrrolo[2,3-e][1,2,4]triazin-6-one] | 0.1 |
| 46 | CC1(C)C(=O)Nc2nc(-c3nn(CCC(F)(F)C(F)(F)F)c4ncccc34)ncc21 [Example 3, 5,5-Dimethyl-2-[1-(3,3,4,4,4-pentafluorobutyl)-1H-pyrazolo[3,4-b]pyridin-3-yl]-5,7-dihydro-6H-pyrrolo[2,3-d]pyrimidin-6-one] | 0.03 |
| 101 | CC1(C)C(=O)Nc2nc(-c3nn(CCC(F)(F)C(F)(F)F)c4ncc(F)cc34)ncc21 [Example 4, 2-[5-Fluoro-1-(3,3,4,4,4-pentafluorobutyl)-1H-pyrazolo[3,4-b]pyridin-3-yl]-5,5-dimethyl-5,7-dihydro-6H-pyrrolo[2,3-d]pyrimidin-6-one] | 0.03 |
| 23 | CC1(C)C(=O)Nc2nc(-c3nn(CC4CCCC4)c4ncc(F)cc34)ncc21 [Example 5, 2-[1-(Cyclopentylmethyl)-5-fluoro-1H-pyrazolo[3,4-b]pyridin-3-yl]-5,5-dimethyl-5,7-dihydro-6H-pyrrolo[2,3-d]pyrimidin-6-one] | 0.1 |
| 102 | CC1(C)C(=O)Nc2nc(-c3nn(CC4CCCC4)c4ncc(F)cc34)nnc21 [Example 6, 3-[1-(Cyclopentylmethyl)-5-fluoro-1H-pyrazolo[3,4-b]pyridin-3-yl]-7,7-dimethyl-5,7-dihydro-6H-pyrrolo[2,3-e][1,2,4]triazin-6-one] | 0.1 |
| – | CC1(C)C(=O)Nc2nc(-c3nn(CCC(F)(F)C(F)F)c4ncc(F)cc34)nnc21 [Example 7, 3-[5-Fluoro-1-(3,3,4,4-tetrafluorobutyl)-1H-pyrazolo[3,4-b]pyridin-3-yl]-7,7-dimethyl-5,7-dihydro-6H-pyrrolo[2,3-e][1,2,4]triazin-6-one] | 0.3 |
| – | CC1(C)C(=O)Nc2nc(-c3nn(CC4CC(F)(F)C4)c4ncc(F)cc34)nnc21 [Example 8, 3-{1-[(3,3-Difluorocyclobutyl)methyl]-5-fluoro-1H-pyrazolo[3,4-b]pyridin-3-yl}-7,7-dimethyl-5,7-dihydro-6H-pyrrolo[2,3-e][1,2,4]triazin-6-one] | 3 |
